Laboratory results: patent US6617131B2, “Nucleic acid molecule encoding the potassium channel protein, KCNQ5” (Aventis Pharma Deutschland GmbH, priority 2000, dated 2003)

Legend:
hKCNQ5 = molecular target: T1, hKCNQ5 (Homo sapiens, UniProt Q9NR82); assay: two-electrode voltage-clamp of KCNQ5 currents in Xenopus oocytes; format: cell-based
T1 construct: A composite full-length cDNA construct was assembled from two overlapping cDNA clones and subcloned into the Xenopus expression vector pSGEM; expressed in transfected cells; host or cells: Xenopus laevis oocytes injected with in vitro transcribed capped cRNA (vector pSGEM)
T1 sequence (Q9NR82 whole entry): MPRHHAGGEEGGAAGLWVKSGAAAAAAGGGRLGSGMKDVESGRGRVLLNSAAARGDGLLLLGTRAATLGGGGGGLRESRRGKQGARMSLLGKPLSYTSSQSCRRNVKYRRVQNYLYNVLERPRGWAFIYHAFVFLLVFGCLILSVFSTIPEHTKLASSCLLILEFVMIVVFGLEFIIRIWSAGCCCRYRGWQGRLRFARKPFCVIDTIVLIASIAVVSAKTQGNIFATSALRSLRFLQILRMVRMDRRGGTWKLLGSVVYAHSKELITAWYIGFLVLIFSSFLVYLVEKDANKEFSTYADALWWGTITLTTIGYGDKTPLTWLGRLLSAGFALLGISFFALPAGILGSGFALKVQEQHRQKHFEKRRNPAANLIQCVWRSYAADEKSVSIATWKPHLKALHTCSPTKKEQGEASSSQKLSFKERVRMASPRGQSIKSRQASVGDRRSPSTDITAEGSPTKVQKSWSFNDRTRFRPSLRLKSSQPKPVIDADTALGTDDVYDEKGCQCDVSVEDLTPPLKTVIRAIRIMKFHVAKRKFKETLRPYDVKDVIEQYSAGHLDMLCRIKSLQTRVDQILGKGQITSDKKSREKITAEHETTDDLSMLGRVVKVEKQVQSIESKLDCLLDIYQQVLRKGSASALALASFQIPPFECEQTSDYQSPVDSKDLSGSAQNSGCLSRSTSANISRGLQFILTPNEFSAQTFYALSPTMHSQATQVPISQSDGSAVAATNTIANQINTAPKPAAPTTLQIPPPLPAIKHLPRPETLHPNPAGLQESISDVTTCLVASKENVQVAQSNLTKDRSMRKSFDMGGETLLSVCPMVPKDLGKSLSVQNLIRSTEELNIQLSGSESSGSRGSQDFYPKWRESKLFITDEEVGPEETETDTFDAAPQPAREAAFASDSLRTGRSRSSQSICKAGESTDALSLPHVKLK
Source text: A, representative current traces from a KCNQ5 injected oocyte subjected to a pulse protocol that stepped the membrane potential from holding potential (−100 mV) to test pulses from −100 to +50 mV and back to holding potential. B, I-V relationships for KCNQ5 expressing oocytes (n=12) recorded using the protocol in A. C, tail current reversal potential of KCNQ 5 currents as a function of extracellular K^+ concentration. The dashed line is drawn according to the Nernst equation for a perfectly selective K^+ channel (n=5). D, effects of TEA, clofilium, quinidine, and chromanol 293 B on KCNQ 5 current. Superimposed currents were obtained during a 3 s depolarizing step from −100 mV to 0 mV, during the same experiment. […]
Xenopus laevis oocytes were obtained from tricaine anaesthetized animals. […] Macroscopic currents were recorded 2-4 days after injection. […]
The possible function of KCNQ5 as a potassium channel was addressed by electrophysiological analysis of Xenopus oocytes injected with KCNQ5 cRNA transcribed in vitro. Two to four days after injection novel currents were detected that were not observed in water-injected control oocytes. […] The two components of deactivation were determined at a repolarizing voltage of −100 mV following a 3s depolarizing step to +40 mV. […]

KCNQ3 = KCNQ3 (Rattus norvegicus, UniProt O88944); conditions: as reported; cited from earlier work
KCNQ3, sequence (O88944 whole entry): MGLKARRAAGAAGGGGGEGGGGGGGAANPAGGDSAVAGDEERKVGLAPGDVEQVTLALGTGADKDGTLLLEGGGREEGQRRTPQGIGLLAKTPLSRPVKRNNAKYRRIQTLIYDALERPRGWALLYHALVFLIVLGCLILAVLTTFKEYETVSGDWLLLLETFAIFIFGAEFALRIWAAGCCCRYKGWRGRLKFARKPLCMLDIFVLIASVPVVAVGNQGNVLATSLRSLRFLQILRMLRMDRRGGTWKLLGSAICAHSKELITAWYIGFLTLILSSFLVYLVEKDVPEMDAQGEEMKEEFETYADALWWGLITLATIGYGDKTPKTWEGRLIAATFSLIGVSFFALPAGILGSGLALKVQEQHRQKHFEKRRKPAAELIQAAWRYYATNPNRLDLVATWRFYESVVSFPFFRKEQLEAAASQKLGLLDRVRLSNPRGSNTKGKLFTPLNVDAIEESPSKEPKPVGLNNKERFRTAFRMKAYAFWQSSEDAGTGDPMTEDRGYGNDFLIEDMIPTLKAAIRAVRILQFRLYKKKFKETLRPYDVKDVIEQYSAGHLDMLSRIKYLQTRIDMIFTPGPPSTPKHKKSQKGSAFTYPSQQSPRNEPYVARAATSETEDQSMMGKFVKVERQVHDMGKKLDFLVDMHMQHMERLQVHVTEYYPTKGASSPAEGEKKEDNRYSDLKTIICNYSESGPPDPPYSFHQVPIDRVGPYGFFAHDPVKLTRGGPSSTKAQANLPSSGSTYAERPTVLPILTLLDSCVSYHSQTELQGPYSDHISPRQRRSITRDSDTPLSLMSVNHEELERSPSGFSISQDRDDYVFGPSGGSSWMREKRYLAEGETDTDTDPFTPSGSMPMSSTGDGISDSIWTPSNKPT

KCNQ2 = KCNQ2 (Homo sapiens, UniProt O43526); conditions: cited from earlier work
KCNQ2, sequence (O43526 whole entry): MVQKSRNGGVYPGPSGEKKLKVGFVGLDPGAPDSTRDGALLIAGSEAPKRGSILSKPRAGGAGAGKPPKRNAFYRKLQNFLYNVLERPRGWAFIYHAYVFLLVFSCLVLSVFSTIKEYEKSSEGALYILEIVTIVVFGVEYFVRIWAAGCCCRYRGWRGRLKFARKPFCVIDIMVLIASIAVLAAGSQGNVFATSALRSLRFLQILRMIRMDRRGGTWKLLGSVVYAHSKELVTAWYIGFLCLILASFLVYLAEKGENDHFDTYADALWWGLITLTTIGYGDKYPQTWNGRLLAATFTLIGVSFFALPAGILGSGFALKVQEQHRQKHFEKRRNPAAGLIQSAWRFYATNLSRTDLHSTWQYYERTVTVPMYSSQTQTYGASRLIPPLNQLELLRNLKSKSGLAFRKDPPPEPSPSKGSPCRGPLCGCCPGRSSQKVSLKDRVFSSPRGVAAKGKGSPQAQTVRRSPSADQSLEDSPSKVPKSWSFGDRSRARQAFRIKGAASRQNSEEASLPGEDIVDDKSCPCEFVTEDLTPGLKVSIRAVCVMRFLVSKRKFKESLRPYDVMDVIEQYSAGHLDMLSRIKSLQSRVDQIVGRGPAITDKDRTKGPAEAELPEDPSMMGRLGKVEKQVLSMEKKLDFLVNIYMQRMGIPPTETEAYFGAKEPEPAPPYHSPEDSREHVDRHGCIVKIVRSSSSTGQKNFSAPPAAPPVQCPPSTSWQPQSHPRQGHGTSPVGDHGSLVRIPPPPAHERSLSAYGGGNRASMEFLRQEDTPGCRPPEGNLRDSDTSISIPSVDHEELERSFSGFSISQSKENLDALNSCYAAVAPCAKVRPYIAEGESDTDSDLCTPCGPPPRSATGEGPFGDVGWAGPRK

In the case of CC[N+](CC)(CC)CC [TEA, tetraethylammonium], the “sensitivity of KCNQ5 currents to the blocker” value (hKCNQ5) is given as “insensitive”, the “sensitivity of KCNQ3 to the blocker” value (KCNQ3) is given as “insensitive” and the “sensitivity of KCNQ2 to the blocker” value (KCNQ2) is given as “high sensitivity”.
With C=C[C@H]1C[N@@]2CC[C@H]1C[C@@H]2[C@@H](O)c1ccnc2ccc(OC)cc12 [quinidine] the “block of KCNQ5 currents” value (hKCNQ5; 300 μM, 3 s step from −100 mV to 0 mV) was 50%.
For CCCCCCC[N+](CC)(CC)CCCCc1ccc(Cl)cc1 [Clofilium], the “inhibition of KCNQ2” value (KCNQ2; 10 μM) is listed as “little inhibition”.
